{"source": "patent US20210181179A1", "about": "“DIAGNOSIS AND TREATMENT OF IMMUNOTHERAPY-INDUCED NEUROTOXICITY” (MEMORIAL SLOAN KETTERING CANCER CENTER, priority 2018, published 2021)", "key": {"CCF-STTG1 (astrocytoma)": {"system": "CCF-STTG1 (astrocytoma)", "assay": "Net production of TRP metabolites in media samples, CCF-STTG1", "format": "cell-based, human", "source_text": "(§1) Under physiological conditions in the brain, kynurenine metabolism is driven by microglial cells and astrocytes with preferential production of QUIN and KA respectively. […] This may have been due to T cells producing cytokines and/or intermediate metabolites that are further metabolized to QUIN by the cells. In order to identify specific factors that may lead to tryptophan-kynurenine pathway up-regulation for QUIN production, we tested a panel of cytokine and chemokines implicated in NTX and CRS. […] We initially evaluated the panel of the select factors individually (FIGS. 16 A-B). We selected several cytokines based on their effect on rate-limiting enzymes for QUIN production. These included IFNγ, TNF, […], CXCL10 and […]. These enzymes were selected based on their regulation of key enzymes, KMO and KYNU, which may lead to supraphysiological accumulation of QUIN. These factors were further evaluated, individually or in combination, on astrocytoma, microglial, and primary monocyte-derived macrophages for mRNA levels of kynurenine pathway enzymes and kynurenine metabolites production (FIG. 17)."}, "SUP-B15 (B-ALL)": {"system": "SUP-B15 (B-ALL)", "assay": "Net production of TRP metabolites in media samples, SUP-B15", "format": "cell-based"}, "HMC3 (microglia)": {"system": "HMC3 (microglia)", "assay": "Net production of TRP metabolites in media samples, HMC3", "format": "cell-based, human", "source_text": "as §1"}, "RS4; 11 (B-ALL)": {"system": "RS4; 11 (B-ALL)", "assay": "Net production of TRP metabolites in media samples, RS4; 11", "format": "cell-based"}, "BV173 (B-ALL)": {"system": "BV173 (B-ALL)", "assay": "Net production of TRP metabolites in media samples, BV173", "format": "cell-based"}, "HCN2 (cortical neuron)": {"system": "HCN2 (cortical neuron)", "assay": "Net production of TRP metabolites in media samples, HCN2", "format": "cell-based"}, "ALL3.1 (B-ALL)": {"system": "ALL3.1 (B-ALL)", "assay": "Net production of TRP metabolites in media samples, ALL3.1", "format": "cell-based"}, "CCRF-SB (B-ALL)": {"system": "CCRF-SB (B-ALL)", "assay": "Net production of TRP metabolites in media samples, CCRF-SB", "format": "cell-based"}, "THP-1 (monocyte)": {"system": "THP-1 (monocyte)", "assay": "Net production of TRP metabolites in media samples, THP-1", "format": "cell-based"}, "KARPAS231 (B-ALL)": {"system": "KARPAS231 (B-ALL)", "assay": "Net production of TRP metabolites in media samples, KARPAS231", "format": "cell-based"}, "DOAY (medulloblastoma)": {"system": "DOAY (medulloblastoma)", "assay": "Net production of TRP metabolites in media samples, DOAY", "format": "cell-based"}}, "data": [{"substance": "Il6: cytokine", "values": [{"measurement": "Net production of TRP metabolites in media samples: 3-HK", "setting": "CCF-STTG1 (astrocytoma)", "value": "−8.16 ± 2.2"}, {"measurement": "Net production of TRP metabolites in media samples: HAA", "setting": "CCF-STTG1 (astrocytoma)", "value": "11 ± 0.4"}, {"measurement": "Net production of TRP metabolites in media samples: KA", "setting": "CCF-STTG1 (astrocytoma)", "value": "5.16 ± 1.1"}, {"measurement": "Net production of TRP metabolites in media samples: KYN", "setting": "CCF-STTG1 (astrocytoma)", "value": "4385.94 ± 43.3"}, {"measurement": "Net production of TRP metabolites in media samples: QUIN", "setting": "CCF-STTG1 (astrocytoma)", "value": "17.06 ± 11^"}, {"measurement": "Net production of TRP metabolites in media samples: 3-HK", "setting": "SUP-B15 (B-ALL)", "value": "16.58 ± 13.5"}, {"measurement": "Net production of TRP metabolites in media samples: HAA", "setting": "SUP-B15 (B-ALL)", "value": "6.44 ± 0.8"}, {"measurement": "Net production of TRP metabolites in media samples: KA", "setting": "SUP-B15 (B-ALL)", "value": "−6.4 ± 3"}, {"measurement": "Net production of TRP metabolites in media samples: KYN", "setting": "SUP-B15 (B-ALL)", "value": "309 ± 182"}, {"measurement": "Net production of TRP metabolites in media samples: QUIN", "setting": "SUP-B15 (B-ALL)", "value": "−65.6 ± 16^"}, {"measurement": "Net production of TRP metabolites in media samples: 3-HK", "setting": "HMC3 (microglia)", "value": "8.44 ± 18"}, {"measurement": "Net production of TRP metabolites in media samples: HAA", "setting": "HMC3 (microglia)", "value": "0.12 ± 2.4"}, {"measurement": "Net production of TRP metabolites in media samples: KA", "setting": "HMC3 (microglia)", "value": "6.3 ± 3.8"}, {"measurement": "Net production of TRP metabolites in media samples: KYN", "setting": "HMC3 (microglia)", "value": "545.08 ± 313^"}, {"measurement": "Net production of TRP metabolites in media samples: QUIN", "setting": "HMC3 (microglia)", "value": "61.04 ± 23.7"}, {"measurement": "Net production of TRP metabolites in media samples: 3-HK", "setting": "RS4; 11 (B-ALL)", "value": "−1.36 ± 1.1"}, {"measurement": "Net production of TRP metabolites in media samples: KA", "setting": "RS4; 11 (B-ALL)", "value": "−6.52 ± 2.3"}, {"measurement": "Net production of TRP metabolites in media samples: KYN", "setting": "RS4; 11 (B-ALL)", "value": "−3.36 ± 38.7"}, {"measurement": "Net production of TRP metabolites in media samples: QUIN", "setting": "RS4; 11 (B-ALL)", "value": "16.28 ± 63.8"}, {"measurement": "Net production of TRP metabolites in media samples: 3-HK", "setting": "BV173 (B-ALL)", "value": "12.32 ± 11.8"}, {"measurement": "Net production of TRP metabolites in media samples: KA", "setting": "BV173 (B-ALL)", "value": "−3 ± 3"}, {"measurement": "Net production of TRP metabolites in media samples: KYN", "setting": "BV173 (B-ALL)", "value": "244.92 ± 172.4"}, {"measurement": "Net production of TRP metabolites in media samples: QUIN", "setting": "BV173 (B-ALL)", "value": "13.06 ± 15.6"}, {"measurement": "Net production of TRP metabolites in media samples: 3-HK", "setting": "HCN2 (cortical neuron)", "value": "4.96 ± 0.8"}, {"measurement": "Net production of TRP metabolites in media samples: HAA", "setting": "HCN2 (cortical neuron)", "value": "5.48 ± 0.8"}, {"measurement": "Net production of TRP metabolites in media samples: KA", "setting": "HCN2 (cortical neuron)", "value": "0.86 ± 2.1"}, {"measurement": "Net production of TRP metabolites in media samples: KYN", "setting": "HCN2 (cortical neuron)", "value": "−2.08 ± 19^"}, {"measurement": "Net production of TRP metabolites in media samples: QUIN", "setting": "HCN2 (cortical neuron)", "value": "0.94 ± 12.9"}, {"measurement": "Net production of TRP metabolites in media samples: 3-HK", "setting": "ALL3.1 (B-ALL)", "value": "1.48 ± 5.3"}, {"measurement": "Net production of TRP metabolites in media samples: KA", "setting": "ALL3.1 (B-ALL)", "value": "−2.36 ± 6^"}, {"measurement": "Net production of TRP metabolites in media samples: KYN", "setting": "ALL3.1 (B-ALL)", "value": "95.16 ± 123.3"}, {"measurement": "Net production of TRP metabolites in media samples: QUIN", "setting": "ALL3.1 (B-ALL)", "value": "8.66 ± 36.5"}, {"measurement": "Net production of TRP metabolites in media samples: 3-HK", "setting": "CCRF-SB (B-ALL)", "value": "27.64 ± 22.5"}, {"measurement": "Net production of TRP metabolites in media samples: HAA", "setting": "CCRF-SB (B-ALL)", "value": "9.34 ± 2.1"}, {"measurement": "Net production of TRP metabolites in media samples: KA", "setting": "CCRF-SB (B-ALL)", "value": "−6.88 ± 1.5"}, {"measurement": "Net production of TRP metabolites in media samples: KYN", "setting": "CCRF-SB (B-ALL)", "value": "438.12 ± 308.6"}, {"measurement": "Net production of TRP metabolites in media samples: QUIN", "setting": "CCRF-SB (B-ALL)", "value": "−51.14 ± 13 ^"}, {"measurement": "Net production of TRP metabolites in media samples: 3-HK", "setting": "THP-1 (monocyte)", "value": "0.5 ± 1.2"}, {"measurement": "Net production of TRP metabolites in media samples: KA", "setting": "THP-1 (monocyte)", "value": "−6.74 ± 6.2"}, {"measurement": "Net production of TRP metabolites in media samples: KYN", "setting": "THP-1 (monocyte)", "value": "176.36 ± 33"}, {"measurement": "Net production of TRP metabolites in media samples: QUIN", "setting": "THP-1 (monocyte)", "value": "−5.14 ± 52.9"}, {"measurement": "Net production of TRP metabolites in media samples: 3-HK", "setting": "KARPAS231 (B-ALL)", "value": "1.48 ± 2.2"}, {"measurement": "Net production of TRP metabolites in media samples: HAA", "setting": "KARPAS231 (B-ALL)", "value": "8.68 ± 1.5"}, {"measurement": "Net production of TRP metabolites in media samples: KA", "setting": "KARPAS231 (B-ALL)", "value": "−7.58 ± 4.2"}, {"measurement": "Net production of TRP metabolites in media samples: KYN", "setting": "KARPAS231 (B-ALL)", "value": "−77.44 ± 27.4"}, {"measurement": "Net production of TRP metabolites in media samples: QUIN", "setting": "KARPAS231 (B-ALL)", "value": "−37.78 ± 29.5"}, {"measurement": "Net production of TRP metabolites in media samples: 3-HK", "setting": "DOAY (medulloblastoma)", "value": "−11.68 ± 1.2"}, {"measurement": "Net production of TRP metabolites in media samples: HAA", "setting": "DOAY (medulloblastoma)", "value": "11.14 ± 0.8"}, {"measurement": "Net production of TRP metabolites in media samples: KA", "setting": "DOAY (medulloblastoma)", "value": "6.16 ± 4.2"}, {"measurement": "Net production of TRP metabolites in media samples: KYN", "setting": "DOAY (medulloblastoma)", "value": "41.5 ± 21.6"}, {"measurement": "Net production of TRP metabolites in media samples: QUIN", "setting": "DOAY (medulloblastoma)", "value": "29.66 ± 29.4"}]}]}
